Measured values published in patent US20220002314A1 (priority 2018, published 2022).
Where two headings read alike, the source gives them in different places.

What was measured:
[1] = target: Human μ-opioid receptor (Homo sapiens, UniProt P35372); assay: biochemical; format: binding
[2] = target: Human α2δ-1 subunit of Cav2.2 calcium channel (Homo sapiens, UniProt P54289); assay: biochemical; format: binding
Chain of Human α2δ-1 subunit of Cav2.2 calcium channel (P54289 25-1103): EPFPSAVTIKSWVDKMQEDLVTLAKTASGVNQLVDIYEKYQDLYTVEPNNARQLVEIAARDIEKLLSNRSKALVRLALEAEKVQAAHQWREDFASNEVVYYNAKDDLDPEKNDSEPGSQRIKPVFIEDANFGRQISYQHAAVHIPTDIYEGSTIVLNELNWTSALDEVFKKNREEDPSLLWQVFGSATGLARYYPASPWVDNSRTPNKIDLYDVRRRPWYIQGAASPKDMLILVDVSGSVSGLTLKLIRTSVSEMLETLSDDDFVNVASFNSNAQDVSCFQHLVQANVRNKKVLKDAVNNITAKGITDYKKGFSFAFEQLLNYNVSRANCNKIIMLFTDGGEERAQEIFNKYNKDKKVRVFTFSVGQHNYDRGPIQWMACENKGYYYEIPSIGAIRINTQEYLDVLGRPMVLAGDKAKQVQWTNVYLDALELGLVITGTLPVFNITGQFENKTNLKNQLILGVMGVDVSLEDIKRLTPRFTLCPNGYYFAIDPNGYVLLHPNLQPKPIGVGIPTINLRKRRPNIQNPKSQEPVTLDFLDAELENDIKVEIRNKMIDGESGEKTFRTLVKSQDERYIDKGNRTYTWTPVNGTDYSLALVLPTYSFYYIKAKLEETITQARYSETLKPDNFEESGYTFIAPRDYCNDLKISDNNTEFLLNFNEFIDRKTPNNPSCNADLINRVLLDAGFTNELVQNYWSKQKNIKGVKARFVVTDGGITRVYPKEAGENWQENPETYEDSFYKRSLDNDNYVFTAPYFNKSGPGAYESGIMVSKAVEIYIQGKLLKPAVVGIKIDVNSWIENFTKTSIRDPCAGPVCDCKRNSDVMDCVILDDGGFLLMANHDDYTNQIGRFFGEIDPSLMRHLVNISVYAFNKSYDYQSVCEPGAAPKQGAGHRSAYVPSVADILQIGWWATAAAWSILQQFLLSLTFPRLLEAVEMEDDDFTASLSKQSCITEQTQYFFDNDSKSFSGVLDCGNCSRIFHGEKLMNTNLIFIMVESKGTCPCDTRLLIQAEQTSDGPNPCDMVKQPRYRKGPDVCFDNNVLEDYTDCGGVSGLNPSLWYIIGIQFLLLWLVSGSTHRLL

Chain of Human μ-opioid receptor (P35372 whole entry): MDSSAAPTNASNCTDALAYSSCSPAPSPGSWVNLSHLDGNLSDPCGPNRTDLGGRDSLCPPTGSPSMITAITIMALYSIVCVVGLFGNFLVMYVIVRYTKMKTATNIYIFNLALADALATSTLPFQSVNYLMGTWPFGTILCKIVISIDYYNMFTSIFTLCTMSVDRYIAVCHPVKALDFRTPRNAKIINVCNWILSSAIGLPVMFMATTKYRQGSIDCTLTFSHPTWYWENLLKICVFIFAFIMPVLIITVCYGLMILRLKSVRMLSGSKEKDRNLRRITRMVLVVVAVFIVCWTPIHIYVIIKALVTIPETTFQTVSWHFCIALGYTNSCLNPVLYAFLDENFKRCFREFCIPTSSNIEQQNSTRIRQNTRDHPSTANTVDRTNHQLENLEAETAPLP

Compound | Ki [1] [nM] | Ki [2] [nM] | Ki ([1]; read-out: μ-binding) [nM] | Ki ([2]; read-out: α2δ-1 binding) [nM]
CCC[C@H](c1nc2cc(Cl)c(Cl)cc2c(=O)n1CC)N1CCN[C@@H](C)C1 [Example 49, 6,7-Dichloro-3-ethyl-2-((R)-1-((S)-3-methylpiperazin-1-yl)butyl)quinazolin-4(3H)-one] | 100 to 500 | < 500 | – | –
CCCC(c1nc2ccc(N3CCCC3)cc2c(=O)n1CC)N1C[C@@H](C)N[C@@H](C)C1 (stereo partly drawn) [Example 138, 2-(1-((3S,5R)-3,5-dimethylpiperazin-1-yl)butyl)-3-ethyl-6-(pyrrolidin-1-yl)quinazolin-4(3H)-one] | > 500 | < 500 | – | –
CCC[C@H](c1nc2ccccc2c(=O)n1C)N1C[C@@H](C)N[C@@H](C)C1 [Example 32, 2-((R)-1-((3S,5R)-3,5-dimethylpiperazin-1-yl)butyl)-3-methylquinazolin-4(3H)-one] | > 500 | < 500 | – | –
CCC[C@H](c1nc2ccc(Br)cc2c(=O)n1CC)N1CCN[C@@H](C)C1 [Example 97, 6-Bromo-3-ethyl-2-((R)-1-((S)-3-methylpiperazin-1-yl)butyl)quinazolin-4(3H)-one] | 100 to 500 | < 500 | – | –
CCCC(c1nc2ccc(N3CCC(N)CC3)cc2c(=O)n1CC)N1C[C@@H](C)N[C@@H](C)C1 (stereo partly drawn) [Example 141, 6-(4-aminopiperidin-1-yl)-2-(1-((3S,5R)-3,5-dimethylpiperazin-1-yl)butyl)-3-ethylquinazolin-4(3H)-one] | > 500 | < 500 | – | –
CCC[C@@H](c1nc2ccc(Br)cc2c(=O)n1CC)N1CCN[C@H](CO)C1 [Example 59, 6-bromo-3-ethyl-2-((S)-1-((S)-3-(hydroxymethyl)piperazin-1-yl)butyl)quinazolin-4(3H)-one] | > 500 | > 5000 | – | –
CCCC(c1nc2ccc(N(C)CCNC)cc2c(=O)n1CC)N1C[C@@H](C)N[C@@H](C)C1 (stereo partly drawn) [Example 146, 2-(1-((3S,5R)-3,5-dimethylpiperazin-1-yl)butyl)-3-ethyl-6-(methyl(2-(methylamino)ethyl)amino)quinazolin-4(3H)-one] | > 500 | < 500 | – | –
CCC[C@H](c1nc2cc(O[C@H](CNC)c3ccccc3)ccc2c(=O)n1C)N1C[C@@H](C)N[C@@H](C)C1 [Example 170, 2-((R)-1-((3S,5R)-3,5-dimethylpiperazin-1-yl)butyl)-3-methyl-7-((S)-2-(methylamino)-1-phenylethoxy)quinazolin-4(3H)-one] | > 500 | < 500 | – | –
CCC[C@@H](c1nc2ccc(Br)cc2c(=O)n1CC)N1C[C@H](C)N[C@@H](C)C1 [Example 227, 6-Bromo-2-((S)-1-((3S,5S)-3,5-dimethylpiperazin-1-yl)butyl)-3-ethylquinazolin-4(3H)-one] | > 500 | > 5000 | – | –
CCC[C@H](c1nc2ccc(F)cc2c(=O)n1CCC)N1CCN[C@@H](C)C1 [Example 202, 6-fluoro-2-((R)-1-((S)-3-methylpiperazin-1-yl)butyl)-3-propylquinazolin-4(3H)-one] | > 500 | < 500 | – | –
CCC[C@H](c1nc2ccccc2c(=O)n1CCOC)N1C[C@@H](C)N[C@@H](C)C1 [Example 123, 2-((R)-1-((3S,5R)-3,5-Dimethylpiperazin-1-yl)butyl)-3-(2-methoxyethyl)quinazolin-4(3H)-one] | > 500 | < 500 | – | –
CCC[C@H](c1nc2c(F)cc(F)c(F)c2c(=O)n1CC)N1CCN[C@@H](C)C1 [Example 226, 3-ethyl-5,6,8-trifluoro-2-((R)-1-((S)-3-methylpiperazin-1-yl)butyl)quinazolin-4(3H)-one] | 100 to 500 | 500 to 5000 | – | –
CCCC(c1nc2ncc(Br)cc2c(=O)n1CC)N1CCNCC1 (stereo not shown) [Example 93, 6-bromo-3-ethyl-2-(1-(piperazin-1-yl)butyl)pyrido[2,3-d]pyrimidin-4(3H)-one] | > 500 | < 500 | – | –
CCCC(c1nc2ccc(Br)cc2c(=O)n1CC)N1C[C@@H](C)N[C@@H](C)C1 (stereo partly drawn) [Example 1, 6-Bromo-2-(1-((3S,5R)-3,5-dimethylpiperazin-1-yl)butyl)-3-ethylquinazolin-4(3H)-one] | > 500 | < 500 | – | –
CCC[C@H](c1nc2cc(F)c(Cl)cc2c(=O)n1C)N1CCN[C@@H](C)C1 [Example 221, 6-chloro-7-fluoro-3-methyl-2-((R)-1-((S)-3-methylpiperazin-1-yl)butyl)quinazolin-4(3H)-one] | < 100 | 500 to 5000 | – | –
CCC[C@H](c1nc2ccc(C(F)(F)F)cc2c(=O)n1CC)N1CCN[C@@H](C)C1 [Example 207, 3-ethyl-2-((R)-1-((S)-3-methylpiperazin-1-yl)butyl)-6-(trifluoromethyl)quinazolin-4(3H)-one] | 100 to 500 | < 500 | – | –
CCC[C@@H](c1nc2cnc(C(F)(F)F)cc2c(=O)n1CC)N1CCN[C@@H](C)C1 [Example 235, 3-ethyl-2-((S)-1-((S)-3-methylpiperazin-1-yl)butyl)-6-(trifluoromethyl)pyrido[3,4-d]pyrimidin-4(3H)-one] | > 500 | > 5000 | – | –

Compound | Ki [1] [nM] | Ki [2] [nM] | Ki ([1]; read-out: μ-binding) [nM] | Ki ([2]; read-out: α2δ-1 binding) [nM]
CCC[C@H](c1nc2cc(O[C@H](CCNC)c3ccccc3)ccc2c(=O)n1C)N1C[C@@H](C)N[C@@H](C)C1 [Example 165, 2-((R)-1-((3S,5R)-3,5-dimethylpiperazin-1-yl)butyl)-3-methyl-7-((R)-3-(methylamino)-1-phenylpropoxy)quinazolin-4(3H)-one] | > 500 | 500 to 5000 | – | –
CCC[C@H](c1nc2ccc(Br)cc2c(=O)n1CC)[C@H]1CCNCC1(F)F (single isomer, unassigned) [Example 189] | > 500 | < 500 | – | –
CCC[C@@H](c1nc2ccc(Br)cc2c(=O)n1CC)[C@@H]1CCN[C@@H](C)C1 [Example 192, 6-bromo-3-ethyl-2-((R)-1-((2S,4R)-2-methylpiperidin-4-yl)butyl)quinazolin-4(3H)-one] | > 500 | > 5000 | – | –
CCC[C@H](c1nc2ccc(Cl)cc2c(=O)n1CC)N1CCN[C@H](CF)C1 [Example 229, 6-Chloro-3-ethyl-2-((R)-1-((S)-3-(fluoromethyl)piperazin-1-yl)butyl)quinazolin-4(3H)-one] | > 500 | < 500 | – | –
CCC[C@H](c1nc2ccc(Br)cc2c(=O)n1CC)[C@H]1CCN[C@@H](C)C1 [Example 191, 6-bromo-3-ethyl-2-((S)-1-((2S,4S)-2-methylpiperidin-4-yl)butyl)quinazolin-4(3H)-one] | 100 to 500 | < 500 | – | –
CCCC(c1nc2ccc(C)cc2c(=O)n1CCOC)N1C[C@@H](C)N[C@@H](C)C1 (stereo partly drawn) [Example 119, 2-(1-((3S,5R)-3,5-dimethylpiperazin-1-yl)butyl)-3-(2-methoxyethyl)-6-methylquinazolin-4(3H)-one] | > 500 | < 500 | – | –
CCCC(c1nc2ccc(NCCNC)cc2c(=O)n1CC)N1C[C@@H](C)N[C@@H](C)C1 (stereo partly drawn) [Example 145, 2-(1-((3S,5R)-3,5-dimethylpiperazin-1-yl)butyl)-3-ethyl-6-((2-(methylamino)ethyl)amino)quinazolin-4(3H)-one] | > 500 | < 500 | – | –
CCC[C@H](c1nc2ccc(Br)cc2c(=O)n1CC)N1CCNC(C)(C)C1 [Example 224, (R)-6-bromo-2-(1-(3,3-dimethylpiperazin-1-yl)butyl)-3-ethylquinazolin-4(3H)-one] | < 100 | > 5000 | – | –
CCCC(c1nc2c(Br)cccc2c(=O)n1CC)N1C[C@@H](C)N[C@@H](C)C1 (stereo partly drawn) [Example 13, 8-bromo-2-(1-((3S,5R)-3,5-dimethylpiperazin-1-yl)butyl)-3-ethylquinazolin-4(3H)-one] | – | > 5000 | > 500 | –
CCCC(c1nc2ccc(N3CCC(NC)CC3)cc2c(=O)n1CC)N1C[C@@H](C)N[C@@H](C)C1 (stereo partly drawn) [Example 140, 2-(1-((3S,5R)-3,5-dimethylpiperazin-1-yl)butyl)-3-ethyl-6-(4-(methylamino)piperidin-1-yl)quinazolin-4(3H)-one] | > 500 | < 500 | – | –
CCCC(c1nc2cc(C)c(Br)cc2c(=O)n1CC)N1C[C@@H](C)N[C@@H](C)C1 (stereo partly drawn) [Example 19, 6-bromo-2-(1-((3S,5R)-3,5-dimethylpiperazin-1-yl)butyl)-3-ethyl-7-methylquinazolin-4(3H)-one] | > 500 | < 500 | – | –
CCC[C@H](c1nc2ccc(NCC[C@@]3(c4ccccn4)CCOC4(CCCC4)C3)cc2c(=O)n1CC)N1C[C@@H](C)N[C@@H](C)C1 [Example 160, 2-((R)-1-((3S,5R)-3,5-dimethylpiperazin-1-yl)butyl)-3-ethyl-6-((2-((R)-9-(pyridin-2-yl)-6-oxaspiro[4.5]decan-9-yl)ethyl)amino)quinazolin-4(3H)-one] | > 500 | < 500 | – | –
CCCC(c1nc2ccc(Br)cc2c(=O)n1C)N1C[C@@H](C)N[C@@H](C)C1 (stereo partly drawn) [Example 16, 6-bromo-2-(1-((3S,5R)-3,5-dimethylpiperazin-1-yl)butyl)-3-methylquinazolin-4(3H)-one] | > 500 | < 500 | – | –
CCCC(c1nc2ccc(CCO)cc2c(=O)n1CC)N1C[C@@H](C)N[C@@H](C)C1 (stereo partly drawn) [Example 173, 2-(1-((3S,5R)-3,5-Dimethylpiperazin-1-yl)butyl)-3-ethyl-6-(2-hydroxyethyl)quinazolin-4(3H)-one] | > 500 | < 500 | – | –
CCC[C@H](c1nc2ccc(Br)cc2c(=O)n1CC)N1CCN[C@H](CO)C1 [Example 58, 6-Bromo-3-ethyl-2-((R)-1-((S)-3-(hydroxymethyl)piperazin-1-yl)butyl)quinazolin-4(3H)-one] | > 500 | < 500 | – | –
CCC[C@H](c1nc2ccc(Br)cc2c(=O)n1CC)N1CCN[C@@H](COC)C1 [Example 219, 6-bromo-3-ethyl-2-((R)-1-((R)-3-(methoxymethyl)piperazin-1-yl)butyl)quinazolin-4(3H)-one] | > 500 | < 500 | – | –
CCC[C@@H](c1nc2ccccc2c(=O)n1CC)N1C[C@@H](C)N[C@@H](C)C1 [Example 33, 2-((S)-1-((3S,5R)-3,5-Dimethylpiperazin-1-yl)butyl)-3-ethylquinazolin-4(3H)-one] | – | – | – | 500 to 5000
